According to US7799809B2, “Carboxamide compounds and their use as calpain inhibitors” (Abbott GmbH & Co. KG, priority 2006, dated 2010):

Key:
Format in all cases: biochemical
cathepsin K = target: T1, cathepsin K (Homo sapiens, UniProt P43235); test: Cathepsin K enzyme inhibition in vitro (kinetic fluorescence assay); conditions: cathepsin K activated from recombinant human procathepsin K vs calpain I
T1 construct: purchased Calbiochem 342001; host or cells: E. coli
T1 sequence (P43235 115-329): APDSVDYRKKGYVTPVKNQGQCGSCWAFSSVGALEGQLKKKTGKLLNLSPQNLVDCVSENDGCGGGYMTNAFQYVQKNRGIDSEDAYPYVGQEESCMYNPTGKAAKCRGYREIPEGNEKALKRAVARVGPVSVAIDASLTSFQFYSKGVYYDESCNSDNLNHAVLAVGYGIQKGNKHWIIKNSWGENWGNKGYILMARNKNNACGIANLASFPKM
Method: The following solutions and buffers were employed: • HBS (for 40 ml): 800 μl M HEPES; 2.16 ml 100 mM KCl; 4.8 ml 1M NaCl; 3.59 ml 5% glucose; 60 μl μM MgSO4; 400 μl 100 mM Na pyruvate, 28.19 ml water; pH 7.2-7.5. • lysis buffer (for 20 ml): 400 μl M Tris pH 8.2; 2.74 ml 1M NaCl; 520 μl 0.5M EDTA; 2 ml 10% triton X-100; 0.8 ml (=1:25) CompletePlus (1 tablet/2 ml H2O); 200 μl 100 mM Pefabloc; 13.34 ml water, pH 8.2. • TBST (10×) (for 1 l): 100 mM Tris (12.1 g); 1.5M NaCl (87 g); 1% Tween 20 (10 g), adjusted to pH 8. I Enzyme Inhibition In Vitro: • Testing for blockade of the corresponding enzymic activities was carried out by means of kinetic fluorescence assays (excitation 390 nm, emission 460 nm). • Apparent Ki values were calculated from the experimentally determined IC50 values by the Cheng-Prussoff relation assuming a reversible competitive enzyme inhibition. The Km values of the substrates used under the assay conditions indicated above were: 90 μM (Z-Phe-Arg-AMC, cathepsin B), 10 μM (Z-Gly-Pro-Arg-AMC, cathepsin K), 2 μM (Z-Phe-Arg-AMC, cathepsin L), and 30 μM (Z-Val-Val-Arg-AMC, cathepsin S). • The indicated Ki values are averages of the inhibition constants calculated on the basis of 2 to 4 independent dose-effect plots.
The following assays were used: • 1. Calpain I: • 20 nM calpain-I—isolated from human erythrocytes (Calbiochem #208713), 100 μM Suc-Leu-Tyr-AMC (Bachem #1-1355) as substrate in buffer with 62 mM imidazole, 0.3 mM CaCl2, 0.10% CHAPS, 0.05% BSA, 1 mM DTT at pH 7.3 and room temperature. • 2. Cathepsin B: • 0.25 nM cathepsin B—isolated from human liver (Calbiochem #219362), 100 μM Z-Phe-Arg-AMC (Bachem #I-1160) as substrate 50 mM MES, 2 mM EDTA, 0.05% Brij 35, 2.5 mM L-cysteine, pH 6.0, room temperature. • 3. Cathepsin K: • 3 nM cathepsin K—activated from recombinant human procathepsin K from E. coli (Calbiochem #342001), 10 μM Z-Gly-Pro-Arg-AMC (Biomol #P-142) as substrate in 50 mM MES, 2 mM EDTA, 0.05% Brij 35, 2.5 mM L-cysteine, pH 6.0, room temperature. • 4. Cathepsin L: • 1 nM cathepsin L—isolated from human liver (Calbiochem #219402), 2 μM Z-Phe-Arg-AMC (Bachem #1-1160) as substrate in 50 mM MES, 2 mM EDTA, 0.05% Brij 35, 2.5 mM L-cysteine, pH 6.0, room temperature. • 5. Cathepsin S: • 0.5 nM recombinant human cathepsin S from E. coli (Calbiochem #219343), 20 μM Z-Val-Val-Arg-AMC (Bachem #1-1540) as substrate in 50 mM MES, 2 mM EDTA, 0.05% Brij 35, 2.5 mM L-cysteine, pH 6.0, room temperature. • The results of the in vitro determination are indicated in Table 1. The following abbreviations are used in Table 1: • The “Calpain activity” column, ++ stands for a calpain Ki (Ki(calpain)) of ≦40 nM and + means: 40 nM<Ki(Calpain)≦100 nM. • The “Sel. cat. B” column indicates the Ki(cathepsin B)/Ki(calpain) ratio. In this connection, ++ means a Ki(cathepsin B)/Ki(calpain) ratio of ≧30 and + means 10≦Ki(cathepsin B)/Ki(calpain)<30. • The “Sel. cat. K” column indicates the Ki(cathepsin K)/Ki(calpain) ratio. In this connection, ++ means a Ki(cathepsin K)/Ki(calpain) ratio of ≧30 and + means 10≦Ki(cathepsin K)/Ki(calpain)<30. • The “Sel. cat. L” column indicates the Ki(cathepsin L)/Ki(calpain) ratio. In this connection, ++ means a Ki(cathepsin L)/Ki(calpain) ratio of ≧50 and + means 30≦Ki(cathepsin L)/Ki(calpain)<50. • The “Sel. cat. S” column indicates the Ki(cathepsin S)/Ki(calpain) ratio. In this connection, ++ means a Ki(cathepsin S)/Ki(calpain) ratio of ≧100 and + means 50≦Ki(cathepsin S)/Ki(calpain)<100.

cathepsin S = target: T2, cathepsin S (Homo sapiens, UniProt P25774); test: Cathepsin S enzyme inhibition in vitro (kinetic fluorescence assay); conditions: recombinant human cathepsin S vs calpain I
T2 construct: purchased Calbiochem 219343; host or cells: E. coli
Summary of the method: (§1)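 Kinetic fluorescence (ex 390/em 460 nm) at room temperature in 50 mM MES, 2 mM EDTA, 0.05% Brij 35, 2.5 mM L-cysteine, pH 6.0. Cathepsin B (liver, 0.25 nM) with 100 μM Z-Phe-Arg-AMC; cathepsin L (liver, 1 nM) with 2 μM Z-Phe-Arg-AMC; recombinant E. coli cathepsin S (0.5 nM) with 20 μM Z-Val-Val-Arg-AMC. Ki via Cheng-Prusoff.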

cathepsin L = target: T3, cathepsin L (Homo sapiens, UniProt P07711); test: Cathepsin L enzyme inhibition in vitro (kinetic fluorescence assay); conditions: cathepsin L isolated from human liver vs calpain I
T3 construct: cathepsin L—isolated from human liver (Calbiochem #219402); purchased Calbiochem 219402; host or cells: human liver (tissue-derived)
Summary of the method: as §1

cathepsin B = target: T4, cathepsin B (Homo sapiens, UniProt P07858); test: Cathepsin B enzyme inhibition in vitro (kinetic fluorescence assay); conditions: cathepsin B isolated from human liver vs calpain I
T4 construct: cathepsin B—isolated from human liver (Calbiochem #219362); purchased Calbiochem 219362; host or cells: human liver (tissue-derived)
Summary of the method: as §1

T3 sequence (P07711 114-333): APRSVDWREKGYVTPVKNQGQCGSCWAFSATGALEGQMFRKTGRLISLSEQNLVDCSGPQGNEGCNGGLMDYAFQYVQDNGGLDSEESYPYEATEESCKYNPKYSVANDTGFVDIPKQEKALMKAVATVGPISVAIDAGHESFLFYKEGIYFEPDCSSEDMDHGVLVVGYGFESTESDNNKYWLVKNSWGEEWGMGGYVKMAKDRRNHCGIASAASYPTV
T2 sequence (P25774 115-331): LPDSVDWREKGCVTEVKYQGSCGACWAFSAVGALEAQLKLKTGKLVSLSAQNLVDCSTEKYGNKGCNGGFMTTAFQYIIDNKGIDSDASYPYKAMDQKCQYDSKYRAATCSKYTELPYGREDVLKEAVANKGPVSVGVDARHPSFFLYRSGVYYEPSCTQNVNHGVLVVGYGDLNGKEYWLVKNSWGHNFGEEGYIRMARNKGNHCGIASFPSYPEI

## NC(=O)C(=O)C(Cc1ccccc1)NC(=O)c1cccnc1-n1ccc(-c2ccccn2)n1 (stereo not drawn) [Example 35, N-(3-Amino-1-benzyl-2,3-dioxopropyl)-2-(3-pyridin-2-yl-1H-pyrazol-1-yl)nicotinamide]
Cathepsin K
  Sel cat. K: Ki(cathepsin K)/Ki(calpain) ratio: + (+ means 10≦Ki(cathepsin K)/Ki(calpain)<30)
Cathepsin S
  Sel cat. S: Ki(cathepsin S)/Ki(calpain) ratio: ++ (++ means a Ki(cathepsin S)/Ki(calpain) ratio of ≧100)
Cathepsin L
  Sel cat. L: Ki(cathepsin L)/Ki(calpain) ratio: ++ (++ means a Ki(cathepsin L)/Ki(calpain) ratio of ≧50)
Cathepsin B
  Sel cat. B: Ki(cathepsin B)/Ki(calpain) ratio: + (+ means 10≦Ki(cathepsin B)/Ki(calpain)<30)

## NC(=O)C(=O)C(Cc1cccc(F)c1)NC(=O)c1cccnc1-n1ccc(-c2ccccc2OC(F)(F)F)n1 (stereo not drawn) [Example 162, N-{3-Amino-1-[(3-fluorophenyl)methyl]-2,3-dioxopropyl}-2-(3-{2-[(trifluoromethyl)oxy]phenyl}-1H-pyrazol-1-yl)pyridine-3-carboxamide]
Cathepsin K
  Sel cat. K: Ki(cathepsin K)/Ki(calpain) ratio: ++ (++ means a Ki(cathepsin K)/Ki(calpain) ratio of ≧30)
Cathepsin S
  Sel cat. S: Ki(cathepsin S)/Ki(calpain) ratio: ++ (++ means a Ki(cathepsin S)/Ki(calpain) ratio of ≧100)
Cathepsin L
  Sel cat. L: Ki(cathepsin L)/Ki(calpain) ratio: ++ (++ means a Ki(cathepsin L)/Ki(calpain) ratio of ≧50)
Cathepsin B
  Sel cat. B: Ki(cathepsin B)/Ki(calpain) ratio: ++ (++ means a Ki(cathepsin B)/Ki(calpain) ratio of ≧30)

## NC(=O)C(=O)C(Cc1ccccc1)NC(=O)c1cccnc1-n1ccc(-c2ccccc2OC(F)(F)F)n1 (stereo not drawn) [Example 124, N-[3-Amino-2,3-dioxo-1-(phenylmethyl)propyl]-2-(3-{2-[(trifluoromethyl)oxy]phenyl}-1H-pyrazol-1-yl)pyridine-3-carboxamide]
Cathepsin K
  Sel cat. K: Ki(cathepsin K)/Ki(calpain) ratio: ++ (++ means a Ki(cathepsin K)/Ki(calpain) ratio of ≧30)
Cathepsin S
  Sel cat. S: Ki(cathepsin S)/Ki(calpain) ratio: ++ (++ means a Ki(cathepsin S)/Ki(calpain) ratio of ≧100)
Cathepsin L
  Sel cat. L: Ki(cathepsin L)/Ki(calpain) ratio: ++ (++ means a Ki(cathepsin L)/Ki(calpain) ratio of ≧50)
Cathepsin B
  Sel cat. B: Ki(cathepsin B)/Ki(calpain) ratio: ++ (++ means a Ki(cathepsin B)/Ki(calpain) ratio of ≧30)

## NC(=O)C(=O)[C@H](Cc1ccccc1)NC(=O)c1cccnc1-n1ccc(-c2ccccc2)n1 [Example 107, N-[(1S)-3-Amino-2,3-dioxo-1-(phenylmethyl)propyl]-2-(3-phenyl-1H-pyrazol-1-yl)pyridine-3-carboxamide]
Cathepsin K
  Sel cat. K: Ki(cathepsin K)/Ki(calpain) ratio: + (+ means 10≦Ki(cathepsin K)/Ki(calpain)<30)
Cathepsin S
  Sel cat. S: Ki(cathepsin S)/Ki(calpain) ratio: ++ (++ means a Ki(cathepsin S)/Ki(calpain) ratio of ≧100)
Cathepsin L
  Sel cat. L: Ki(cathepsin L)/Ki(calpain) ratio: ++ (++ means a Ki(cathepsin L)/Ki(calpain) ratio of ≧50)
Cathepsin B
  Sel cat. B: Ki(cathepsin B)/Ki(calpain) ratio: + (+ means 10≦Ki(cathepsin B)/Ki(calpain)<30)

## NC(=O)C(=O)C(Cc1ccccc1)NC(=O)c1cccnc1-n1ccc(-c2c(F)cccc2F)n1 (stereo not drawn) [Example 85, N-[3-Amino-2,3-dioxo-1-(phenylmethyl)propyl]-2-[3-(2,6-difluorophenyl)-1H-pyrazol-1-yl]pyridine-3-carboxamide]
Cathepsin K
  Sel cat. K: Ki(cathepsin K)/Ki(calpain) ratio: ++ (++ means a Ki(cathepsin K)/Ki(calpain) ratio of ≧30)
Cathepsin S
  Sel cat. S: Ki(cathepsin S)/Ki(calpain) ratio: ++ (++ means a Ki(cathepsin S)/Ki(calpain) ratio of ≧100)
Cathepsin L
  Sel cat. L: Ki(cathepsin L)/Ki(calpain) ratio: ++ (++ means a Ki(cathepsin L)/Ki(calpain) ratio of ≧50)
Cathepsin B
  Sel cat. B: Ki(cathepsin B)/Ki(calpain) ratio: + (+ means 10≦Ki(cathepsin B)/Ki(calpain)<30)

## COc1ccc(CC(NC(=O)c2cccnc2-n2ccc(-c3ccc(F)cc3OC)n2)C(=O)C(N)=O)cc1 (stereo not drawn) [Example 136, N-(3-Amino-1-{[4-(methyloxy)phenyl]methyl}-2,3-dioxopropyl)-2-{3-[4-fluoro-2-(methyloxy)phenyl]-1H-pyrazol-1-yl}pyridine-3-carboxamide]
Cathepsin K
  Sel cat. K: Ki(cathepsin K)/Ki(calpain) ratio: ++ (++ means a Ki(cathepsin K)/Ki(calpain) ratio of ≧30)
Cathepsin S
  Sel cat. S: Ki(cathepsin S)/Ki(calpain) ratio: ++ (++ means a Ki(cathepsin S)/Ki(calpain) ratio of ≧100)
Cathepsin L
  Sel cat. L: Ki(cathepsin L)/Ki(calpain) ratio: ++ (++ means a Ki(cathepsin L)/Ki(calpain) ratio of ≧50)
Cathepsin B
  Sel cat. B: Ki(cathepsin B)/Ki(calpain) ratio: ++ (++ means a Ki(cathepsin B)/Ki(calpain) ratio of ≧30)

## NC(=O)C(=O)C(Cc1ccccc1)NC(=O)c1cccnc1-n1ccc(-c2cc(Cl)ccc2Cl)n1 (stereo not drawn) [Example 112, N-[3-Amino-2,3-dioxo-1-(phenylmethyl)propyl]-2-[3-(2,5-dichlorophenyl)-1H-pyrazol-1-yl]pyridine-3-carboxamide]
Cathepsin K
  Sel cat. K: Ki(cathepsin K)/Ki(calpain) ratio: ++ (++ means a Ki(cathepsin K)/Ki(calpain) ratio of ≧30)
Cathepsin S
  Sel cat. S: Ki(cathepsin S)/Ki(calpain) ratio: ++ (++ means a Ki(cathepsin S)/Ki(calpain) ratio of ≧100)
Cathepsin L
  Sel cat. L: Ki(cathepsin L)/Ki(calpain) ratio: ++ (++ means a Ki(cathepsin L)/Ki(calpain) ratio of ≧50)
Cathepsin B
  Sel cat. B: Ki(cathepsin B)/Ki(calpain) ratio: ++ (++ means a Ki(cathepsin B)/Ki(calpain) ratio of ≧30)

## NC(=O)C(=O)C(Cc1ccc(Cl)cc1)NC(=O)c1cccnc1-n1ccc(-c2ccccc2)n1 (stereo not drawn) [Example 50, N-[3-Amino-1-(4-chlorobenzyl)-2,3-dioxopropyl]-2-(3-phenyl-1H-pyrazol-1-yl)nicotinamide]
Cathepsin K
  Sel cat. K: Ki(cathepsin K)/Ki(calpain) ratio: + (+ means 10≦Ki(cathepsin K)/Ki(calpain)<30)
Cathepsin S
  Sel cat. S: Ki(cathepsin S)/Ki(calpain) ratio: + (+ means 50≦Ki(cathepsin S)/Ki(calpain)<100)
Cathepsin L
  Sel cat. L: Ki(cathepsin L)/Ki(calpain) ratio: + (+ means 30≦Ki(cathepsin L)/Ki(calpain)<50)
Cathepsin B
  Sel cat. B: Ki(cathepsin B)/Ki(calpain) ratio: + (+ means 10≦Ki(cathepsin B)/Ki(calpain)<30)

## NC(=O)C(=O)C(Cc1ccccc1)NC(=O)c1cccnc1-n1ccc(-c2ccccc2C(F)(F)F)n1 (stereo not drawn) [Example 72, N-(3-Amino-1-benzyl-2,3-dioxopropyl)-2-{3-[2-(trifluoromethyl)phenyl]-1H-pyrazol-1-yl}nicotinamide]
Cathepsin K
  Sel cat. K: Ki(cathepsin K)/Ki(calpain) ratio: + (+ means 10≦Ki(cathepsin K)/Ki(calpain)<30)
Cathepsin S
  Sel cat. S: Ki(cathepsin S)/Ki(calpain) ratio: ++ (++ means a Ki(cathepsin S)/Ki(calpain) ratio of ≧100)
Cathepsin L
  Sel cat. L: Ki(cathepsin L)/Ki(calpain) ratio: + (+ means 30≦Ki(cathepsin L)/Ki(calpain)<50)
Cathepsin B
  Sel cat. B: Ki(cathepsin B)/Ki(calpain) ratio: + (+ means 10≦Ki(cathepsin B)/Ki(calpain)<30)
